Patent US9402839B2, “Selective targeting agents for mitochondria” (University of Pittsburgh—Of the Commonwealth System of …, priority 2006, dated 2016)

Test system: phospholipids in intestinal mucosa
Test: Assay for peroxidation of phospholipids in gut mucosa after hemorrhagic shock
Type: in vivo, rat
Conditions: intraluminal 10 μM, 2 h HS
Procedure: After 2 h of shock, the animals were euthanized with an intracardiac KCl bolus injection. The ileum was rapidly excised from the ileocecal valve to the most proximal gut segment. The tips of each segment were discarded. In order to assay caspases 3 and 7 activity and phospholipids peroxidation, mucosa samples were collected from gut segments immediately after hemorrhage and stored at −80° C. For permeability measurements, each segment was converted into an everted gut sac, as previously described by Wattanasirichaigoon et al., see Wattanasirichaigoon, S. et al., Effect of mesenteric ischemia and reperfusion or hemorrhagic shock on intestinal mucosal permeability and ATP content in rats, SHOCK, 12:127-133 (1999).
Assay for peroxidation of phospholipids. Gut mucosal samples were homogenized. Lipids were extracted from homogenates using the Folch procedure, see M. Lees and G. H. Sloan-Stanley, A simple method for isolation and purification of total lipids from animal tissue, J. BIOL. CHEM. 226:497-509 (1957), and resolved by 2D HPTLC (High Performance Thin Layer Chromatography) as previously described, see Kagan, V. E. et al., A role for oxidative stress in apoptosis: Oxidation and externalization of phosphatidylserine is required for macrophage clearance of cell undergoing Fas-mediated apoptosis, J. IMMUMOL. 169:487-489 (2002). Spots of phospholipids were scraped from HPTLC plates and phospholipids were extracted from silica. Lipid phosphorus was determined by a micro-method, see Bottcher, C. J. F. et al., A rapid and sensitive sub-micro phosphorus determination, ANAL. CHIM. ACTA 24: 203-204 (1961).
Oxidized phospholipids were hydrolyzed by pancreatic phospholipase A2 (2 U/μl) in 25 mM phosphate buffer containing 1 mM CaCl2, 0.5 mM EDTA and 0.5 mM sodium dodecyl sulfate (SDS) (pH 8.0, at room temperature for 30 min). Fatty acid hydroperoxides formed were determined by fluorescence HPLC of resorufin stoichiometrically formed during their microperoxidase 11-catalized reduction in presence of Amplex Red (for 40 min at 4° C.) (8). Fluorescence HPLC (ECLIPSE XDB-C18 column, 5 μm, 150×4.6 mm, mobile phase was composed of 25 mM disodium phosphate buffer (pH 7.0)/methanol (60:40 v/v); excitation wavelength 560 nm, emission wavelength 590 nm) was performed on a SHIMADZU LC-100AT HPLC system equipped with fluorescence detector (RF-10Ax1) and autosampler (SIL-10AD).
In the subsequent series of in vivo studies, the affect of intraluminal XJB-5-131 on hemorrhage-induced peroxidation of phospholipids in intestinal mucosa was examined. […] In a preferred embodiment, 0.3 mL of test solution filled the lumen of each ileal compartment. […]

CC(C)C[C@@H](/C=C/[C@H](Cc1ccccc1)C(=O)N1CCC[C@H]1C(=O)N[C@H](C(=O)N[C@@H](CCCNC(=O)OCc1ccccc1)C(=O)NC1CC(C)(C)N([O])C(C)(C)C1)C(C)C)NC(=O)OC(C)(C)C [XJB-5-131]
hemorrhage-induced peroxidation of cardiolipin (CL): significantly ameliorated | peroxidation of phosphatidylcholine (PC): no effect | peroxidation of phosphatidylethanolamine (PE): small effect | peroxidation of phosphatidylserine (PS): no effect
